From patent US20230285405A1, “Pharmaceuticals for Treating or Preventing Nidoviruses and Picornaviruses” (priority 2020, published 2023)
Structures can show the parent of a compound that is named as a salt. Where two headings read alike, the source gives them in different places.

What was measured:
[1] = test system: OC43; experiment: Drug screening: OC43 nucleoprotein staining in infected A549-mRuby cells; assay type: cell-based, human beta coronavirus OC43; conditions: for activity at 10 µM: Betacoronavirus 1, OC43, 96 h
Procedure: A549-mRuby cells were seeded (3,000 cells per well) in nine 384-well plates using Multidrop combi. Cells were seeded in a final volume of 30 μl with DMEM+10% BCS. The following day, 20 μl of OC43 were added (MOI 0.3) and incubated at 33° C., 5% CO2 for 1 hour. 50 nl from the Selleck FDA-approved drug library (cat #L1300, Selleck) were added (1:1,000 dilution). Two columns (32 wells) were left uninfected and two columns were treated with DMSO and virus (no drug control). Cells were imaged using the IncuCyte S3 to measure cell numbers at day 0. Cells were incubated for 4 days at 33° C., 5% CO2 and were stained for OC43 nucleoprotein. All the following steps were performed at room temperature. Cells were fixed in 50 μl 4% PFA/PBS for 15 min, blocked with 50 μl 10% BSA+0.5% Triton X-100 in PBS for 30 minutes, stained with 50 μl anti-OC43 (cat #MAB9013, Milipore) diluted 1:2,000 in 2% BSA+0.1% Triton X-100 in PBS for 1 hour, washed with 50 μl PBS three times, stained with anti-mouse-AlexaFluor488 diluted 1:1,000 in 2% BSA+0.1% Triton X-100 in PBS for 1 hour, washed with 50 μl PBS three times and imaged on the IncuCyte S3 (day 4). The screen was performed twice.
(§1) The following parameters were extracted from the images: number of cells at day 0, number of cells at day 4 and total OC43 staining intensity at day 4. For analysis, OC43 staining intensity was normalized to the number of cells in the well and further normalized to the mean of the no drug controls, which was set to 100. […] For each plate, a drug was considered as a putative hit if it reduced OC43 staining by over 3 standard deviations from the mean of the no drug controls. Drugs were considered hits if they were not toxic and reduced OC43 staining by over 3 standard deviations in both repeats.
(§2) A library of 1,900 clinically used drugs was screened, the drugs either approved for human use or having extensive safety data in humans (Phase 2 or 3 clinical trials), for their ability to inhibit OC43 infection of the human lung epithelial cell line A549 (expressing an H2B-mRuby nuclear reporter). One day after plating, cells were infected at an MOI of 0.3, incubated at 33° C. for 1 hour and drugs were added to a final concentration of 10 μM. Cells were then incubated at 33° C. for 4 days, fixed and stained for the presence of the viral nucleoprotein. The cells were imaged at day 0 (following drug addition) and day 4 (after staining) to determine the drugs effect on cell growth and OC43 infection.

[2] = test system: A549-mRuby cells; experiment: Drug screening: effect on cell growth (cell number day 4 / day 0); conditions: 10 μM drug; for Growth_1: number of cells at day 4 divided by number of cells at day 0 / toxic_1: repeat #1; for Growth_2: number of cells at day 4 divided by number of cells at day 0 / toxic_2: repeat #2
Procedure: A549-mRuby cells were seeded (3,000 cells per well) in nine 384-well plates using Multidrop combi. Cells were seeded in a final volume of 30 μl with DMEM+10% BCS. The following day, 20 μl of OC43 were added (MOI 0.3) and incubated at 33° C., 5% CO2 for 1 hour. 50 nl from the Selleck FDA-approved drug library (cat #L1300, Selleck) were added (1:1,000 dilution). Two columns (32 wells) were left uninfected and two columns were treated with DMSO and virus (no drug control). Cells were imaged using the IncuCyte S3 to measure cell numbers at day 0. Cells were incubated for 4 days at 33° C., 5% CO2 and were stained for OC43 nucleoprotein. All the following steps were performed at room temperature. […] The screen was performed twice.
as §1, §2

[3] = 10 μM drug, MOI 0.3, 4 days, OC43 staining normalized to no-drug controls, mean of the two screen repeats, read-out: OC43_mean
[4] = 10 μM drug, MOI 0.3, 4 days, normalized to no-drug controls in the same plate, repeat #1, read-out: OC43_1: % staining of OC43 in screen repeat #1
[5] = 10 μM drug, MOI 0.3, 4 days, normalized to no-drug controls in the same plate, repeat #2, read-out: OC43_2: % staining of OC43 in screen repeat #2
[6] = 10 μM drug, MOI 0.3, 4 days, OC43 staining normalized to no-drug controls, mean of the two screen repeats
[7] = 10 μM drug, MOI 0.3, 4 days, normalized to no-drug controls in the same plate, repeat #1
[8] = 10 μM drug, MOI 0.3, 4 days, normalized to no-drug controls in the same plate, repeat #2

Compound | hit_1 ([1]; 10 μM drug, repeat #1) | hit_2 ([1]; 10 μM drug, repeat #2) | activity at 10 µM [1, 3] [%] | activity at 10 µM [1, 4] [%] | activity at 10 µM [1, 5] [%] | Growth_1: number of cells at day 4 divided by number of cells at day 0 [2] | toxic_1 [2] | Growth_2: number of cells at day 4 divided by number of cells at day 0 [2] | toxic_2 [2] | activity at 10 µM ([1]; read-out: OC43_mean) [%] | OC43_mean [1, 6] [%] | OC43_1: % staining of OC43 in screen repeat #1 [1, 7] [%] | OC43_2: % staining of OC43 in screen repeat #2 [1, 8] [%] | Growth_1: number of cells at day 4 divided by number of cells at day 0 ([2]; Dihydrate) | Growth_2: number of cells at day 4 divided by number of cells at day 0 ([2]; Dihydrate) | Growth_1: number of cells at day 4 divided by number of cells at day 0 ([2]; hydrochloride) | Growth_2: number of cells at day 4 divided by number of cells at day 0 ([2]; hydrochloride)
CCC(=O)OCC(=O)[C@@]1(OC(=O)CC)[C@@H](C)C[C@H]2[C@@H]3CCC4=CC(=O)C=C[C@]4(C)[C@@]3(Cl)[C@@H](O)C[C@@]21C [Beclomethasone dipropionate] | 1 | 1 | 33.6 | 38.3 | 29 | 3.4 | 0 | 4.6 | 0 | – | – | – | – | – | – | – | –
N=C(N)N/N=C/c1c(Cl)cccc1Cl [Guanabenz Acetate] | 1 | 1 | 34.6 | 31.1 | 38.1 | 5.3 | 0 | 4.4 | 0 | – | – | – | – | – | – | – | –
CN(C)CCCN1c2ccccc2CCc2ccc(Cl)cc21.O [Clomipramine HCl] | 1 | 1 | – | 13.9 | 21.6 | 2.6 | 0 | 3.8 | 0 | 17.7 | – | – | – | – | – | – | –
C#C[C@]1(O)CC[C@H]2[C@@H]3CCC4=CC(=O)CC[C@@H]4[C@H]3C(=C)C[C@@]21CC [Etonogestrel] | 1 | 1 | 44.3 | 47.8 | 40.7 | 4.3 | 0 | 4.3 | 0 | – | – | – | – | – | – | – | –
C[C@@H]1CCN(C(=O)CC#N)C[C@@H]1N(C)c1ncnc2[nH]ccc12.O=C(O)CC(O)(CC(=O)O)C(=O)O [Tofacitinib (CP-690550) Citrate] | 1 | 1 | – | – | – | 4.8 | 0 | 4.7 | 0 | – | 58.5 | 56.5 | 60.4 | – | – | – | –
C=C[C@H]1C[N@@]2CC[C@H]1C[C@@H]2[C@@H](O)c1ccnc2ccc(OC)cc12 [Quinidine sulfate] | 1 | 1 | – | 25.1 | 47.9 | – | – | – | – | – | – | – | – | – | – | – | –
CC[C@H]1OC(=O)[C@H](C)[C@@H](O[C@H]2C[C@@](C)(OC)[C@@H](O)[C@H](C)O2)[C@H](C)[C@@H](O[C@@H]2O[C@H](C)C[C@H](N(C)C)[C@H]2O)[C@](C)(O)C[C@@H](C)CN(C)[C@H](C)[C@@H](O)[C@]1(C)O [Azithromycin Dihydrate] | 1 | 1 | 18.2 | 20.5 | 15.9 | – | 0 | – | 0 | – | – | – | – | 5.4 | 5.0 | – | –
CN1[C@@H]2CC[C@H]1C[C@@H](OC(=O)c1c[nH]c3ccccc13)C2 [Tropisetron HCl] | 1 | 1 | 58 | 52.6 | 63.4 | 5.8 | 0 | 5.5 | 0 | – | – | – | – | – | – | – | –
COCCCC/C(=N\OCCN)c1ccc(C(F)(F)F)cc1 [Fluvoxamine maleate] | 1 | 1 | – | 22.7 | 38.9 | 5.4 | 0 | 4.5 | 0 | 30.8 | – | – | – | – | – | – | –
CCOC(=O)N[C@@H]1CC[C@@H]2[C@@H](C1)C[C@H]1C(=O)O[C@H](C)[C@H]1[C@H]2/C=C/c1ccc(-c2cccc(F)c2)cn1 [Vorapaxar] | 1 | 1 | 50.9 | 53.5 | 48.3 | 4.4 | 0 | 4.1 | 0 | – | – | – | – | – | – | – | –
CN(C)CCCOc1nn(Cc2ccccc2)c2ccccc12 [Benzydamine HCl] | 1 | 1 | 25.9 | 26.2 | 25.6 | 4.9 | 0 | 4.6 | 0 | – | – | – | – | – | – | – | –
COc1cc2ncnc(Nc3ccc(F)c(Cl)c3)c2cc1OCCCN1CCOCC1 [Gefitinib hydrochloride] | 1 | 1 | 23.9 | 20 | 27.8 | – | 0 | – | 0 | – | – | – | – | – | – | 3.5 | 3.3
Alimemazine Tartrate | 1 | 1 | – | – | – | 2.6 | 0 | 2.2 | 0 | – | 40.8 | 47.9 | 33.7 | – | – | – | –
CCN(CCCc1ccccc1)CCCc1ccccc1 [Alverine Citrate] | 1 | 1 | – | 22.1 | 35.3 | 3.7 | 0 | 4.0 | 0 | 28.7 | – | – | – | – | – | – | –
CCCC1O[C@@H]2C[C@H]3[C@@H]4CCC5=CC(=O)C=C[C@]5(C)[C@H]4[C@@H](O)C[C@]3(C)[C@]2(C(=O)CO)O1 (stereo partly shown) [Budesonide] | 1 | 1 | 28.8 | 20.8 | 36.9 | 3.9 | 0 | 4.0 | 0 | – | – | – | – | – | – | – | –
CN(C)N(C)C(=O)[C@@]1(Cc2ccccc2)CCCN(C(=O)[C@@H](Cc2c[nH]c3ccccc23)NC(=O)C(C)(C)N)C1 [Anamorelin] | 1 | 1 | 38.8 | 32 | 45.6 | 5.2 | 0 | 5.5 | 0 | – | – | – | – | – | – | – | –
CN(C)CCCC1(c2ccc(F)cc2)OCc2cc(C#N)ccc21 (stereo not shown) [Citalopram HBr] | 1 | 1 | – | 20.4 | 44.4 | 5.1 | 0 | 5.1 | 0 | 32.4 | – | – | – | – | – | – | –
